Assay results taken from US12459921B2, “Isoindoline compound, preparation method, pharmaceutical composition and use thereof” (SHANGHAI INSTITUTE OF MATERIA MEDICA, CHINESE ACADEMY OF …, priority 2018, dated 2025).
Like-named read-outs stand apart in the source and are kept apart here.

Key:
[1] = system: MM.1S cells; assay: Inhibitory effect on the proliferation of MM.1S, MTS cell viability test; type: cell-based; details: multiple myeloma MM.1S cells, 7 days incubation, read-out: Tumor cell inhibitory activity
Procedure, shortened: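 Viability measured by MTS (OD490 minus OD690 background, 3-4 h) after a 7-day exposure of 20,000 MM.1S cells/well to 5-fold serially diluted compound, 0.2% DMSO final. Inhibition calculated relative to DMSO wells; IC50 curve-fitted, averaged over three repeats.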

[2] = system: MV-4-11 cells; assay: Inhibitory effect on the proliferation of MV-4-11 cells, MTS cell viability test; type: cell-based; details: acute leukemia MV-4-11 cells, 7 days incubation, read-out: Tumor cell inhibitory activity
Protocol: Method of tumor cell proliferation inhibition test: the inventors tested all the example compounds on hematologic tumor cells, multiple myeloma MMTs cell line and acute leukemia cell MV-4-11 cell line of some examples. The activity test method and results are as follows.
2. The Inhibitory Effect of Compounds on the Proliferation of MV-4-11 Cells, MTS Cell Viability Test: 1). Experimental Method:
MV-4-11 cells were cultured and collected with IMDM and 10% fetal bovine serum. The cell concentration was diluted according to 7 days, and 180 ul of cell suspension was added to each well of a 96-well cell plate to 2000 cells. 20 ul of DMSO with a final concentration of 0.2% was added to the control wells. The compound was diluted 5-fold from the 10 mM stock solution, and 20 ul was also added to the compound cell wells (the final concentration of DMSO was 0.2%). The cells were placed in a 37° C., 5% CO2 incubator and incubated for 7 days. After the reaction solution was prepared according to the MTS kit (Promega, G5430), 20 μL was added to each well, incubated in a 37° C., 5% CO2 incubator for 3-4 h. The 490 nm absorbance value was read with a microtiter plate, and the 690 nm absorbance value was used as the background value. OD490-OD690 was used as the final initial data. The formula for calculating the inhibition rate of the compound was: inhibition rate=(ODDMSO-ODcompound)/(ODDMSO-Oblank)×100%. The compound's proliferation inhibition IC50 was fitted by Graph Pad Prism 5.0. The experiment was repeated three times, and the average and standard deviation was calculated according to three parallel experiments each time.

| SMILES | IC50 ([1]; Homo sapiens, MM1.S, 168 h) [nM] | IC50 ([2]; Homo sapiens, MV4-11, 168 h) [nM] | IC50 [1] [nM] | IC50 [2] [nM] |
| --- | --- | --- | --- | --- |
| O=C1CCC(N2Cc3c(CCC[C@H](NC(=O)C4CCC4)C(=O)NCc4ccccc4)cccc3C2=O)C(=O)N1 (stereo partly drawn) [Example 173, N-((2S)-1-(benzylamine)-5-(2-(2,6-dioxopiperidine-3-)-1-oxoisoindoline-4-)-1-oxopentyl-2-)cyclobutylcarboxamide] | < 100 | 29 | – | – |
| O=C1CCC(N2Cc3c(OCc4ccc(CN5CCOCC5)cc4)cccc3C2=O)C(=O)N1 (stereo not shown) [CC-220, reference compound] | < 100 | > 20000 | – | – |
| O=C1CCC(N2Cc3c(CCCCCN4CCc5ccccc54)cccc3C2=O)C(=O)N1 (stereo not shown) [Example 107, 3-(4-(5-(indoline-1-)pentyl)-1-oxoisoindoline-2-)piperidine-2,6-dione] | < 100 | 180 | – | – |
| CC(C)C(=O)N[C@@H](CCCc1cccc2c1CN(C1CCC(=O)NC1=O)C2=O)C(=O)NCc1ccccc1 (stereo partly drawn) [Example 167, (2S)-N-benzyl-5-(2-(2,6-dioxopiperidine-3-)-1-oxoisoindoline-4-)-2-iso butyramidopentaneamide] | < 100 | 35 | – | – |
| N#CC1(c2cccc(Cl)c2)CCN(CCCCCc2cccc3c2CN(C2CCC(=O)NC2=O)C3=O)CC1 (stereo not shown) [Example 51, 4-(3-chlorophenyl)-1-(5-(2-(2,6-dioxopiperidine-3-)-1-oxoisoindoline-4-)pentyl) piperidine-4-carbonitrile] | < 100 | 570 | – | – |
| O=C1CCC(N2Cc3c(CCCCCN4CCC(c5noc6cc(F)ccc56)CC4)cccc3C2=O)C(=O)N1 (stereo not shown) [Example 226, 3-(4-(5-(4-(6-fluorobenzisoxazole-3-yl)piperidin-1-yl)pentyl)-1-oxoisoindoline-2-yl)piperidine-2,6-] | – | – | 1000 to 20000 | 510 |
| Nc1cccc2c1CN(C1CCC(=O)NC1=O)C2=O (stereo not shown) [Lenalidomide, lenalidomide, reference compound] | 100 to 1000 | > 20000 | – | – |
| O=C1CCC(N2Cc3c(CCCCCN4CCN(c5c(Cl)cccc5Cl)CC4)cccc3C2=O)C(=O)N1 (stereo not shown) [Example 235, 3-(4-(5-(4-(2,6-dichlorophenyl)piperazine-1-yl)pentyl)-1-oxoisoindoline-2-yl)piperidine-2,6-dione] | 100 to 1000 | 480 | – | – |
| O=C1CCC(N2Cc3c(CCCCCN4CCC(c5noc6cc(F)ccc56)CC4)cccc3C2=O)C(=O)N1 (stereo not shown) [Example 22, 3-(4-(5-(4-(6-fluorobenzo[d]isoxazole-3-)piperidine-1-)pentyl)-1-oxoisoindoline-2-)piperidine-2,6-dione] | – | – | < 100 | 110 |
| O=C1CCC(N2Cc3c(CCCCCN4CCc5ccc(Br)cc54)cccc3C2=O)C(=O)N1 (stereo not shown) [Example 114, 3-(4-(5-(5-bromoindoline-1-)pentyl)-1-oxoisoindoline-2-)piperidine-2,6-dione] | 100 to 1000 | 220 | – | – |
| N#CC1(c2cc(Cl)ccc2Cl)CCN(CCCCCc2cccc3c2CN(C2CCC(=O)NC2=O)C3=O)CC1 (stereo not shown) [Example 248, 4-(2,5-dichlorophenyl)-1-(5-(2-(2,6-dioxopiperidine-3-yl)-1-oxoisoindoline-4-yl)pentyl)piperidine-4-carbonitrile] | 1000 to 20000 | 660 | – | – |
| Nc1cccc2c1C(=O)N(C1CCC(=O)NC1=O)C2=O (stereo not shown) [Pomalidomide, pomalidomide, reference compound] | < 100 | > 20000 | – | – |
| O=C1CCC(N2Cc3c(CCCCN4CCN(c5cccc6ccsc56)CC4)cccc3C2=O)C(=O)N1 (stereo not shown) [Example 221, 3-(4-(4-(4-(benzothiophene-7-yl)piperazin-1-yl)butyl)-1-oxoisoindoline-2-yl)piperidine-2,6-dione] | < 100 | 600 | – | – |
| Cc1nc2cccc(N)c2c(=O)n1C1CCC(=O)NC1=O (stereo not shown) [CC-122, reference compound] | < 100 | > 20000 | – | – |
| CC(=O)N[C@@H](CCCc1cccc2c1CN(C1CCC(=O)NC1=O)C2=O)C(=O)NCc1ccccc1 (stereo partly drawn) [Example 166, (2S)-2-acetylamino-N-benzyl-5-(2-(2,6-dioxopiperidine-3-)-1-oxoisoindoline-4-)pentanamide] | 100 to 1000 | 200 | – | – |
| CC(=O)N[C@@H](CCCc1cccc2c1CN(C1CCC(=O)NC1=O)C2=O)C(=O)NCc1cccc(Br)c1 (stereo partly drawn) [Example 182, (2S)-2-acetylamino-N-(3-bromobenzyl)-5-(2-(2,6-dioxopiperidine-3-)-1-oxoisoindoline-4-)pentanamide] | < 100 | 17 | – | – |
| Cc1ccc(NC(=O)CCCOc2cccc3c2CN(C2CCC(=O)NC2=O)C3=O)cc1Cl (stereo not shown) [Example 158, N-(3-chloro-4-methylphenyl)-4-((2-(2,6-dioxopiperidine-3-)-1-oxoisoindoline-4-)oxy)butanamide] | < 100 | 14 | – | – |
| O=C1CCC(N2Cc3c(CCCCCN4CCC5(CC4)C(=O)Nc4cc(Cl)ccc45)cccc3C2=O)C(=O)N1 (stereo not shown) [Example 275, 3-(4-(5-(6-chloro-2-oxospiro[dihydroindole-3,4-piperidin]-1-yl)pentyl)-1-oxoisoindoline-2-yl)piperidine-2,6-dione] | 100 to 1000 | 630 | – | – |
| CC(=O)N[C@@H](CCCc1cccc2c1CN(C1CCC(=O)NC1=O)C2=O)C(=O)Nc1ccccc1 (stereo partly drawn) [Example 164, (2S)-2-acetylamino-5-(2-(2,6-dioxopiperidine-3-)-1-oxoisoindoline-4-)-N-phenylpentanamide] | < 100 | 250 | – | – |
| O=C1CCC(N2Cc3c(CCCCCN4CCC5(CCc6ccccc65)CC4)cccc3C2=O)C(=O)N1 (stereo not shown) [Example 143, 3-(4-(5-(2,3-dihydrospiro[indene-1,4′-piperidine]-1′-)pentyl)-1-oxoisoindoline-2-)piperidine-2,6-dione] | < 100 | 610 | – | – |
